These results are taken from patent US20260014147A1, “STAT6 DEGRADERS” (Gilead Sciences, Inc., priority 2024, published 2026).

Assay [1] deals with T1, human STAT6 (truncated, aa122-658, with N-terminal His-tag) (Homo sapiens, UniProt P42226).
T1 construct: Human STAT6 (truncated, aa122-658, with N-terminal His-tag, expressed in insect cells); His-tag (N); made in house; host or cells: insect cells
T1 sequence (P42226 122-658): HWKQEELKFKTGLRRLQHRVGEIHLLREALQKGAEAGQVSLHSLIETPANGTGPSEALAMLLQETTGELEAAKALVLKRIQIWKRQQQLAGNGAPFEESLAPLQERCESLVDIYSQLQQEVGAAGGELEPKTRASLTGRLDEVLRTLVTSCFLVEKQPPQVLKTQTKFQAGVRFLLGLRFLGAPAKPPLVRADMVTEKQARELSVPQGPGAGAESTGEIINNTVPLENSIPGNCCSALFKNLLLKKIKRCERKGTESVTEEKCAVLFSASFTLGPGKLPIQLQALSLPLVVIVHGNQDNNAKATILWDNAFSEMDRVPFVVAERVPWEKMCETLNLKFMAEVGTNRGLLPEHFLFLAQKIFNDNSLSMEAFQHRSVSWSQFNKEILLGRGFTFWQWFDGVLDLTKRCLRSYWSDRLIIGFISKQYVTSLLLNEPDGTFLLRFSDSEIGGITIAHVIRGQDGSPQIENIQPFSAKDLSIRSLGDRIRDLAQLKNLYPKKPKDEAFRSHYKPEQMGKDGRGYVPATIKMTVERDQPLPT
Nature of the assay: Surface Plasmon Resonance (SPR) assay: binding of compounds to immobilized human STAT6. The note with it: immobilized human STAT6 (aa122-658), 25° C.; geometric mean. On the procedure: SPR was used to confirm and quantify binding of compounds to human STAT6. Biacore instruments from the 8K-series (Cytiva) were used, and measurements were performed at 25° C. Human STAT6 (truncated, aa122-658, with N-terminal His-tag, expressed in insect cells) was immobilized in the active flow cells on a CM5 chip using amine-coupling (default settings) at 10 μg/ml in 10 mM acetate buffer pH 5.5, at a contact time of 120-420 sec. and a flow rate of […]. Reference flow cells were deactivated using blank immobilization. PBS-P+ (Cytiva) supplemented with 2% DMSO was used as running buffer, and solvent correction was applied. Compounds were tested by multi-cycle kinetics injections using a contact time of 60 sec., dissociation time of up to 300 sec., and a flow rate of […].
Solvent-corrected, reference-subtracted and blank-corrected data was processed and binding isotherms were fitted according to a single report point from each sensorgram (Standard: Late binding (5 sec. before injection end); alternative: Earlier report point according to binding profile). Data fitting was done both with unfixed Rmax and with Rmax fixed to the theoretical value* assuming 1:1 binding to allow processing of data from both weak and strong binders as well as to evaluate binding stoichiometry.
Positive controls were run at the beginning, during, and at the end of the screen to evaluate surface activity. Generally surface activity was only affected to a minor degree, and no corrections were applied.
*Equation for calculation of the theoretical Rmax (Theoretical Rmax=(MW Analyte/MW Ligand) x immobilization level).
The sensorgrams for Examples 2a1, 2t1, 2m1, and 2a2 are shown below (where RU is plotted vs. time in seconds; dotted lines/points were excluded from the analysis due to effects from non-specific binding).

The target in assay [2] is T2, STAT6 (endogenous, HiBiT-tagged) in HeLa LgBiT clone 4.14 cells (Homo sapiens, UniProt P42226).
T2 construct: These cells express endogenous STAT6; host or cells: HeLa LgBiT clone 4.14
T2 sequence (P42226 1-847): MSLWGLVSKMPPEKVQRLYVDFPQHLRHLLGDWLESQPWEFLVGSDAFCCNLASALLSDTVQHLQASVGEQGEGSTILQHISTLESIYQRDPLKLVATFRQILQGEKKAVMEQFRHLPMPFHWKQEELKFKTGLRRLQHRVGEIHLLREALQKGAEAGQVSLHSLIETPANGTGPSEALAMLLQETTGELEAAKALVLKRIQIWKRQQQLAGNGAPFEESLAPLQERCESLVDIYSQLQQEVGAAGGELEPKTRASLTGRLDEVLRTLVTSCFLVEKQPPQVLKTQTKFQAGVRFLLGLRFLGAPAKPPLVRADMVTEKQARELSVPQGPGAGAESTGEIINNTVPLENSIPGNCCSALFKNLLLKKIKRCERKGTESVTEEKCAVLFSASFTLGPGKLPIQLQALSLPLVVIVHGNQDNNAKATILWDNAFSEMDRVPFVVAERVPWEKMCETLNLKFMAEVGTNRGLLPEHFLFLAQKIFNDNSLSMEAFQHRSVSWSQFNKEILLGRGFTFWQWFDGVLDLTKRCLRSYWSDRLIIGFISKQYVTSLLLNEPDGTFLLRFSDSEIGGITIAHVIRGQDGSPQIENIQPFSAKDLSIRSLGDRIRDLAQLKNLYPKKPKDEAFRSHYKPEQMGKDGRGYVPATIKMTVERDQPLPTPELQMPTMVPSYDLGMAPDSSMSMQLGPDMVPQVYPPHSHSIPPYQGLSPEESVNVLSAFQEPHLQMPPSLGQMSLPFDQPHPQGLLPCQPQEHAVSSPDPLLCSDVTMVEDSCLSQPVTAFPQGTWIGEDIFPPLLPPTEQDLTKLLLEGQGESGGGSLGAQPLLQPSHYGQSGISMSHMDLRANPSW
Nature of the assay: STAT6 Degrader Assay (HiBiT based, HeLa LgBiT clone 4.14 cells, luminescence, DC50). Type of assay: cell-based. The note with it: geometric mean; for Emax: Emax provided for test compounds with <80% Emax (and 2c15), read-out: STAT6 degradation Emax; for DC50: DC50 provided for test compounds with >80% Emax, read-out: STAT6 degradation DC50. The gist of the method:
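Remaining STAT6 is read as NanoBiT luminescence after 0.5 h with Nano-Glo, in HeLa LgBiT clone 4.14 cells expressing endogenous HiBiT-tagged STAT6, following 4-24 h compound incubation at 37 °C. Full degradation is set by 50 µM terfenadine, which kills the cells; degradation plotted against log compound concentration.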

Assay [3] concerns Eotaxin-3 (CCL26) release in human whole blood stimulated with IL-4. Nature of the assay: Human Whole Blood Eotaxin-3 Assay (IL-4 stimulated, inhibition of eotaxin-3 release). Type of assay: cell-based. The note with it: Homo sapiens, EC50 provided for test compounds with >80% Emax, geometric mean across assay runs and batches. The gist of the method: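 Lithium-heparin human whole blood preincubated 2 h at 37 °C with compounds (4-fold serial dilution, triplicate, 0.5% DMSO final), then stimulated with 400 pM IL-4 for 48 h. Eotaxin-3 (CCL26) in supernatant quantified by MSD immunoassay.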

In turn, `Cn1c(CN2CCC(c3ccc(C(=O)N4CCC(CN5CCN(c6ccc(NC7CCC(=O)NC7=O)cc6F)CC5)CC4)cc3)CC2)cc2c(-c3ccc(N)nc3C#N)ccnc21` (stereo not shown) [Example 2c8, 6-amino-3-(2-((4-(4-(4-((4-(4-((2,6-dioxopiperidin-3-yl)amino)-2-fluorophenyl)piperazin-1-yl)-methyl)piperidine-1-carbonyl)phenyl)piperidin-1-yl)methyl)-1-methyl-1H-pyrrolo[2,3-b]pyridin-4-yl)-picolinonitrile] displayed a Kd in assay [1] of 40 to 50 nM. Also, the Emax in assay [2] is under 20%.

As for `Cn1c(CN2CCC(c3ccc(C(=O)N4CCC(CN5CCN(c6ccc(NC7CCC(=O)NC7=O)cc6F)CC5)CC4)cc3)CC2)cc2c(-c3ccc4[nH]ncc4c3)ccnc21` (stereo not shown) [Example 2c1, 3-((4-(4-((1-(4-(1-((4-(1H-indazol-5-yl)-1-methyl-1H-pyrrolo[2,3-b]pyridin-2-yl)methyl)-piperidin-4-yl)benzoyl)piperidin-4-yl)methyl)piperazin-1-yl)-3-fluorophenyl)amino)piperidine-2,6-dione], the EC50 in assay [3] amounted to 556 nM. The same compound returned a Kd in assay [1] of 193 nM. In addition, the maximum response (Emax) in assay [2] was in the range of 70 to 80%.

`Cn1c(CN2CCC(c3ccc(C(=O)N4CCC(CN5CCC(c6ccc(NC7CCC(=O)NC7=O)cc6F)CC5)CC4)cc3)CC2)cc2c(-c3ccc4[nH]ncc4c3)ccnc21` (stereo not shown) [Example 2m1, 3-((4-(1-((1-(4-(1-((4-(1H-indazol-5-yl)-1-methyl-1H-pyrrolo[2,3-b]pyridin-2-yl)methyl)-piperidin-4-yl)benzoyl)piperidin-4-yl)methyl)piperidin-4-yl)-3-fluorophenyl)amino)piperidine-2,6-dione]: in assay [1], binding was characterised by a dissociation constant (Kd) of 466 nM. For the same compound, in assay [2], the maximum response (Emax) was in the range of 60 to 70%.

`Cn1c(CN2CCC(c3ccc(C(=O)N4CCC(CN5CCC(n6ncc7cc(NC8CCC(=O)NC8=O)ccc76)CC5)CC4)cc3)CC2)cc2c(-c3ccc4[nH]ncc4c3)ccnc21` (stereo not shown) [Example 2t4, 3-((1-(1-((1-(4-(1-((4-(1H-indazol-5-yl)-1-methyl-1H-pyrrolo[2,3-b]pyridin-2-yl)methyl)-piperidin-4-yl)benzoyl)piperidin-4-yl)methyl)piperidin-4-yl)-1H-indazol-5-yl)amino)piperidine-2,6-dione]: the Kd in assay [1] was under 20 nM. The Emax in assay [2] was under 20%.

`Cn1c(CN2CCC(c3ccc(C(=O)N4CCC(CN5CCN(C(=O)c6ccc(NC7CCC(=O)NC7=O)cc6F)CC5)CC4)cc3)CC2)cc2c(-c3ccc4[nH]ncc4c3)ccnc21` (stereo not shown) [Example 2e1, 3-((4-(4-((1-(4-(1-((4-(1H-indazol-5-yl)-1-methyl-1H-pyrrolo[2,3-b]pyridin-2-yl)methyl)-piperidin-4-yl)benzoyl)piperidin-4-yl)methyl)piperazine-1-carbonyl)-3-fluorophenyl)amino)piperidine-2,6-dione]: the Kd in assay [1] was under 20 nM. The Emax in assay [2] is under 20%.

The compound `Cn1c(CN2CCC(c3ccc(C(=O)N4CCC(CN5CCN(c6ccc(NC7CCC(=O)NC7=O)cc6F)CC5)CC4)cc3)CC2)cc2c(-c3cnc(N)c(F)c3)ccnc21` (stereo not shown) [Example 2c3, 3-((4-(4-((1-(4-(1-((4-(6-amino-5-fluoropyridin-3-yl)-1-methyl-1H-pyrrolo[2,3-b]pyridin-2-yl)-methyl)piperidin-4-yl)benzoyl)piperidin-4-yl)methyl)piperazin-1-yl)-3-fluorophenyl)amino)piperidine-2,6-dione] came in with a Kd in assay [1] of under 20 nM. Also, the maximum response (Emax) in assay [2] was under 20%.

Compound `Cn1c(CN2CCC(c3ccc(C(=O)N4CCN(C(=O)CN5CCN(c6ccc(NC7CCC(=O)NC7=O)cc6F)CC5)CC4)cc3)CC2)cc2c(-c3ccc4[nH]ncc4c3)ccnc21` (stereo not shown) [Example 2a2, 3-((4-(4-(2-(4-(4-(1-((4-(1H-indazol-5-yl)-1-methyl-1H-pyrrolo[2,3-b]pyridin-2-yl)methyl)-piperidin-4-yl)benzoyl)piperazin-1-yl)-2-oxoethyl)piperazin-1-yl)-3-fluorophenyl)amino)piperidine-2,6-dione] came in with a Kd in assay [1] of 61.2 nM. The Emax in assay [2] was in the range of 60 to 70%.

With `Cn1c(CN2CCC(c3ccc(C(=O)N4CCN(C(=O)CN5CCC(c6ccc(OC7CCC(=O)NC7=O)cc6F)CC5)CC4)cc3)CC2)cc2c(-c3ccc4[nH]ncc4c3)ccnc21` (stereo not shown) [Example 2t1, 3-(4-(1-(2-(4-(4-(1-((4-(1H-indazol-5-yl)-1-methyl-1H-pyrrolo[2,3-b]pyridin-2-yl)methyl)-piperidin-4-yl)benzoyl)piperazin-1-yl)-2-oxoethyl)piperidin-4-yl)-3-fluorophenoxy) piperidine-2,6-dione], binding in assay [1] was characterised by a dissociation constant (Kd) of 105 nM. In assay [2], the half-maximal degradation concentration (DC50) came to 8.1 nM.

For `Cn1c(CN2CCC(c3ccc(C(=O)N4CCN(C(=O)CN5CCC(c6ccc(NC7CCC(=O)NC7=O)cc6F)CC5)CC4)cc3)CC2)cc2c(-c3ccc4[nH]ncc4c3)ccnc21` (stereo not shown) [Example 2a1, 3-((4-(1-(2-(4-(4-(1-((4-(1H-indazol-5-yl)-1-methyl-1H-pyrrolo[2,3-b]pyridin-2-yl)methyl)-piperidin-4-yl)benzoyl)piperazin-1-yl)-2-oxoethyl)piperidin-4-yl)-3-fluorophenyl)amino)piperidine-2,6-dione], the Kd in assay [1] is 224 nM. Also, the 50% degradation concentration (DC50) in assay [2] is 4.9 nM.
